In assay [1] the test system is CD34+ cells from CML patients. Kind of assay: MTT viability assay, CML CD34+ cells. In kind it is cell-based. The conditions noted are these: Homo sapiens, 48 h. The method, then:
Blood samples were taken (venipuncture, EDTA-K2 Vacutainer tubes, Becton Dickinson, Franklin Lakes, NJ, USA) from 8 chronic phase CML patients (CML1–CML8; 4 men and 4 women, aged 39–79) diagnosed at the Department of Hematology, University Clinical Center, Medical University of Warsaw, following their written consent. The diagnosis was carried out by qualified clinical staff based on an interview, blood parameters and molecular tests detecting BCR-ABL1 (transcript b3a2). Peripheral blood mononuclear cells were immediately isolated from the fresh blood sample using standard protocol (Supplementary Methods). […]
Cells were seeded in 96-well plates; after 24 h, medium with the appropriate drug concentration was added to each well. […] Absorbance was read using an iMark Microplate absorbance reader (Bio-Rad, Hercules, CA, USA). Results were calculated relative to cells treated with DMSO only.
(§1) […] Next, we isolated CD34+ cells (EasySep™ Human CD34 Positive Selection Kit II, StemCell Technologies, Vancouver, Canada), counted them and assessed viability with Muse Cell Analyzer (Merck Millipore, Burlington, MA, USA). […] The purity of the live CD34+ fraction was assessed by flow cytometry with anti-human CD34-APC antibody, compared with an appropriate isotype control (Biolegend, San Diego, CA, USA), and propidium iodide (Sigma-Aldrich, St. Louis, MO, USA). […]

The subject of assay [2] is CD34+/CD38+ cells from CML patients. In words: Annexin V-FITC/PI apoptosis in CD34+/CD38+ subpopulation. Format: cell-based, human. The conditions noted are these: 2.5 or 5 µM, 24 h. Here is the method:
Pre-cultured cells were treated with BK124.1 or DMSO for 24 h. For purity analysis, cells were stained with anti-human CD34-APC antibody, anti-human CD38-PE (Biolegend, San Diego, CA, USA), and propidium iodide according to the manufacturers’ protocols. For apoptosis analysis, cells were additionally stained with Annexin V-FITC kit (BD, Franklin Lakes, NJ, USA) according to the manufacturer’s protocol. Appropriate isotype controls were included. Stained cells were immediately analyzed on a BD LSRFortessa flow cytometer with FlowJo software (BD, Franklin Lakes, NJ, USA), after exclusion of doublets. Purity was analyzed on live cells only, and apoptosis separately for each population of cells (CD34^+/CD38^+ or CD34^+/CD38^−).
as §1
[…] In both cases stained cells were immediately analyzed on a BD LSRFortessa flow cytometer and analyzed with FlowJo software (BD, Franklin Lakes, NJ, USA). […]

A further assay concerns K562 cells. Kind of assay: Immunoblotting of CML signaling proteins. In kind it is cell-based, human. The conditions noted are these: 5 µM. The method, then:
K562 cells were plated at a concentration of 1–2 × 10^5 cells/mL in a 6-well plate. After 24 h of pre-incubation, BK124.1 or DMSO was added and cells were incubated for a specified time, after which cells were lysed with RIPA buffer (Sigma-Aldrich, St. Louis, MO, USA) and supplemented with c0mplete Protease Inhibitor (Roche, Basel, Switzerland) and PhosSTOP (Roche, Basel, Switzerland). Protein concentration was measured using Pierce BCA Protein Assay Kit (Thermo Fisher Scientific, Waltham, MA, USA) and adjusted to contain equal amount of protein (20 µg) in equal volume. Protein lysates were separated by SDS-PAGE electrophoresis (TGX StainFree, Bio-Rad, Hercules, CA, USA) and transferred onto the PVDF membranes (AppliChem GmbH ITW Reagents, Darmstadt, Germany). Membranes were blocked with 5% non-fat powdered milk, then incubated with primary antibodies overnight at 4 °C followed by HRP-conjugated antibodies (Supplementary Methods). Blots were developed using Clarity Western ECL Substrate and analyzed with ChemiDoc XRS+ (Bio-Rad, Hercules, CA, USA). Protein levels normalized to controls were determined using ImageJ software.
K562 cells were plated at a concentration of 1.5 × 10^5 cells/mL in a 6-well plate. After 24 h pre-incubation, BK124.1 in DMSO was added and incubated for the specified time. Next, cytosolic and nuclear cell fractions were separated as described. […]
For orientation: A western blot detects proteins with antibodies after separation by electrophoresis.

The record followed here is paper PMC9332833 (Cancers, 2022).

Broadly, the IC50 is the concentration that inhibits the measured activity by half. A low value points to greater potency.

The structures appear in SMILES notation.

The compound `CCC12C(=O)C(CC)(C(c3ccccc3)=C1c1ccccc1)C1C(=O)N(CC(O)CNC(C)C)C(=O)C12` (stereo not shown) [BK124.1, 4-[2-hydroxy-3-(propan-2-ylamino)propyl]-1,7-diethyl-8,9-diphenyl-4-azatricyclo [5.2.1.02,6]dec-8-ene-3,5,10-trione] yielded a concentration for half-maximal inhibition (IC50) in assay [1] of 1500 nM. Besides, in assay [2], the “Apoptosis in CD34+/CD38+ cells compared with CD34+/CD38- cells” value was “even higher apoptosis”. Further, the “Level of BCR-ABL1, STAT5, AKT, mTOR and NF-κB proteins” value in the assay on K562 cells (first changes after 4 and 8 h) is “decrease in the level”. For the same compound, in the assay on K562 cells (from 4 h, maximum after 8 h, mainly nuclear fraction), the “Level of FOXO3A and p21waf1/cip1 proteins” value is “increase in the level”.
